{"source": "the supplement of paper PMC10307832", "assay_in_all_cases": "relative viability (nuclei count vs DMSO), 5 days (fraction); higher = more cells survive", "key": {"Calu-6": {"system": "Calu-6", "how_it_was_run": "(§1)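 Relative viability was taken as the ratio of nuclei in treated wells to nuclei in vehicle wells. Lung cancer cell lines in 1536-well plates received compounds by pin tool one day after seeding, either one drug alone or a fixed anchor-drug dose plus five library-drug doses (not always all listed) in √10 steps. Nuclei were counted on 4× images after 5 days of treatment, and values are medians of duplicate plates.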"}, "IA-LM": {"system": "IA-LM", "how_it_was_run": "as §1"}, "NCI-H522": {"system": "NCI-H522", "how_it_was_run": "as §1"}, "EBC-1": {"system": "EBC-1", "how_it_was_run": "as §1"}, "NCI-H1648": {"system": "NCI-H1648", "how_it_was_run": "as §1"}, "NCI-H1703": {"system": "NCI-H1703", "how_it_was_run": "as §1"}, "SW 900": {"system": "SW 900", "how_it_was_run": "as §1"}, "NCI-H2342": {"system": "NCI-H2342", "how_it_was_run": "as §1"}, "NCI-H1299": {"system": "NCI-H1299", "how_it_was_run": "as §1"}, "A549": {"system": "A549", "how_it_was_run": "as §1"}}, "data": [{"smiles": "O=c1[nH]c2ccccc2n1C1CCN(CCCC(c2ccc(F)cc2)c2ccc(F)cc2)CC1", "note": "[Pimozide] + O=C(c1cc(Cc2n[nH]c(=O)c3ccccc23)ccc1F)N1CCN(C(=O)C2CC2)CC1 [Olaparib] (partner 8 µM)", "values": [{"measurement": "relative viability", "setting": "Calu-6; first compound 0.08 µM", "result": 0.651}, {"measurement": "relative viability", "setting": "Calu-6; first compound 0.253 µM", "result": 0.568}, {"measurement": "relative viability", "setting": "Calu-6; first compound 0.8 µM", "result": 0.597}, {"measurement": "relative viability", "setting": "Calu-6; first compound 2.53 µM", "result": 0.575}, {"measurement": "relative viability", "setting": "Calu-6; first compound 8 µM", "result": 0.425}, {"measurement": "relative viability", "setting": "IA-LM; first compound 0.08 µM", "result": 0.84}, {"measurement": "relative viability", "setting": "IA-LM; first compound 0.253 µM", "result": 0.737}, {"measurement": "relative viability", "setting": "IA-LM; first compound 0.8 µM", "result": 0.873}, {"measurement": "relative viability", "setting": "IA-LM; first compound 2.53 µM", "result": 0.82}, {"measurement": "relative viability", "setting": "IA-LM; first compound 8 µM", "result": 0.812}, {"measurement": "relative viability", "setting": "NCI-H522; first compound 0.08 µM", "result": 0.569}, {"measurement": "relative viability", "setting": "NCI-H522; first compound 0.253 µM", "result": 0.54}, {"measurement": "relative viability", "setting": "NCI-H522; first compound 0.8 µM", "result": 0.751}, {"measurement": "relative viability", "setting": "NCI-H522; first compound 2.53 µM", "result": 0.592}, {"measurement": "relative viability", "setting": "NCI-H522; first compound 8 µM", "result": 0.72}, {"measurement": "relative viability", "setting": "EBC-1; first compound 0.08 µM", "result": 0.651}, {"measurement": "relative viability", "setting": "EBC-1; first compound 0.253 µM", "result": 0.695}, {"measurement": "relative viability", "setting": "EBC-1; first compound 0.8 µM", "result": 0.723}, {"measurement": "relative viability", "setting": "EBC-1; first compound 2.53 µM", "result": 0.626}, {"measurement": "relative viability", "setting": "EBC-1; first compound 8 µM", "result": 0.676}, {"measurement": "relative viability", "setting": "NCI-H1648; first compound 0.08 µM", "result": 0.805}, {"measurement": "relative viability", "setting": "NCI-H1648; first compound 0.8 µM", "result": 0.522}, {"measurement": "relative viability", "setting": "NCI-H1648; first compound 2.53 µM", "result": 0.619}, {"measurement": "relative viability", "setting": "NCI-H1648; first compound 8 µM", "result": 1.1}, {"measurement": "relative viability", "setting": "NCI-H1703; first compound 0.08 µM", "result": 0.352}, {"measurement": "relative viability", "setting": "NCI-H1703; first compound 0.253 µM", "result": 0.324}, {"measurement": "relative viability", "setting": "NCI-H1703; first compound 0.8 µM", "result": 0.374}, {"measurement": "relative viability", "setting": "NCI-H1703; first compound 2.53 µM", "result": 0.439}, {"measurement": "relative viability", "setting": "NCI-H1703; first compound 8 µM", "result": 0.341}, {"measurement": "relative viability", "setting": "SW 900; first compound 0.08 µM", "result": 0.955}, {"measurement": "relative viability", "setting": "SW 900; first compound 0.253 µM", "result": 0.893}, {"measurement": "relative viability", "setting": "SW 900; first compound 2.53 µM", "result": 0.839}, {"measurement": "relative viability", "setting": "SW 900; first compound 8 µM", "result": 0.892}, {"measurement": "relative viability", "setting": "NCI-H2342; first compound 0.08 µM", "result": 0.438}, {"measurement": "relative viability", "setting": "NCI-H2342; first compound 0.253 µM", "result": 0.355}, {"measurement": "relative viability", "setting": "NCI-H2342; first compound 0.8 µM", "result": 0.397}, {"measurement": "relative viability", "setting": "NCI-H2342; first compound 2.53 µM", "result": 0.403}, {"measurement": "relative viability", "setting": "NCI-H2342; first compound 8 µM", "result": 0.411}, {"measurement": "relative viability", "setting": "NCI-H1299; first compound 0.08 µM", "result": 0.983}, {"measurement": "relative viability", "setting": "NCI-H1299; first compound 0.253 µM", "result": 0.973}, {"measurement": "relative viability", "setting": "NCI-H1299; first compound 0.8 µM", "result": 0.931}, {"measurement": "relative viability", "setting": "NCI-H1299; first compound 2.53 µM", "result": 0.948}, {"measurement": "relative viability", "setting": "NCI-H1299; first compound 8 µM", "result": 0.898}, {"measurement": "relative viability", "setting": "A549; first compound 0.08 µM", "result": 0.237}, {"measurement": "relative viability", "setting": "A549; first compound 0.253 µM", "result": 0.319}, {"measurement": "relative viability", "setting": "A549; first compound 0.8 µM", "result": 0.271}, {"measurement": "relative viability", "setting": "A549; first compound 2.53 µM", "result": 0.34}, {"measurement": "relative viability", "setting": "A549; first compound 8 µM", "result": 0.347}]}]}
